The compounds below were run against T1, human TGR5 (Homo sapiens, UniProt Q8TDU6) (assay: Cell-based TGR5 assay (cAMP generation, HTRF)). Conditions: HEK293 cells stably transfected with human TGR5; cAMP by HTRF; 30 minutes at 37° C.; read-out: pEC50 Human TGR5 (converted).
T1 construct: expressed in transfected cells; host or cells: HEK293
T1 sequence (Q8TDU6 1-330): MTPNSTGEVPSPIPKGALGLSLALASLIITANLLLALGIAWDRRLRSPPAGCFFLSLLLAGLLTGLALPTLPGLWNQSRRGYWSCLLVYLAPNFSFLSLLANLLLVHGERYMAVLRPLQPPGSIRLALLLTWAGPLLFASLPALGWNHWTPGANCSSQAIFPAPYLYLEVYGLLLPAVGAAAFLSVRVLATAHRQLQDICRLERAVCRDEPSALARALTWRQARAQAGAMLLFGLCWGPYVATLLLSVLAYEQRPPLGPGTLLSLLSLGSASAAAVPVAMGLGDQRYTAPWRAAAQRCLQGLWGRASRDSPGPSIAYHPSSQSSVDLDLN
Method in brief: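 First, compounds in 3-fold serial dilution were placed in HBSS with 10 mM HEPES pH 7.4 and 0.5 mM IBMX. Next, human TGR5-expressing HEK293 cells were added and incubated 30 min at 37° C. Finally, cAMP was detected by HTRF and pEC50 derived by logistic fitting.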

How did the EC50 turn out when `COc1cc(C)c(CNC2(c3cnccc3-c3ccccc3OC3CC3)CC2)cc1C(C)C` [Compound I-38, 1-[4-(2-cyclopropoxyphenyl)pyridin-3-yl]-N-{[4-methoxy-2-methyl-5-(propan-2-yl)phenyl]methyl}cyclopropan-1-amine] was run?
Its EC50 is 126 to 1000 nM.

How did the EC50 turn out when `CCC(=O)OC[C@H](NC(=O)NCCCCN(C)S(=O)(=O)c1ccc(Cl)c(COC2(c3cnccc3-c3ccccc3OC3CC3)CC2)c1)[C@@H](OC(=O)CC)[C@H](OC(=O)CC)[C@@H](COC(=O)CC)OC(=O)CC` [Compound I-738, (2R,3S,4R,5S)-5-[[(4-[N-methyl[4-chloro-3-([1-[4-(2-cyclopropoxyphenyl)pyridin-3-yl]cyclopropoxy]methyl)benzene]sulfonamido]butyl)carbamoyl]amino]-1,2,4,6-tetrakis(propanoyloxy)hexan-3-yl propanoate] was run?
Its EC50 is 126 to 1000 nM.

Which EC50 does the source give for `CC(C)(CCCc1cc(Cl)c(COC2(c3cnccc3-c3ccccc3OC3CC3)CC2)cc1Cl)C(=O)NC[C@H](O)[C@@H](O)[C@H](O)[C@H](O)CO` [Compound I-144, 5-[2,5-dichloro-4-({1-[4-(2-cyclopropoxyphenyl)pyridin-3-yl]cyclopropoxy}methyl)phenyl]-2,2-dimethyl-N-[(2S,3R,4R,5R)-2,3,4,5,6-pentahydroxyhexyl]pentanamide] here?
Its EC50 is 126 to 1000 nM.

With `O=C(NC[C@H](O)[C@@H](O)[C@H](O)[C@H](O)CO)NC1CC2(C1)CN(S(=O)(=O)c1ccc(Cl)c(COC3(c4cnccc4-c4ccccc4OC4CC4)CC3)c1)C2` [Compound I-430, 1-{2-[4-chloro-3-({1-[4-(2-cyclopropoxyphenyl)pyridin-3-yl]cyclopropoxy}methyl)benzenesulfonyl]-2-azaspiro[3.3]heptan-6-yl}-3-[(2S,3R,4R,5R)-2,3,4,5,6-pentahydroxyhexyl]urea] as the compound, how does the EC50 read?
The EC50 was 126 to 1000 nM.

How did the EC50 turn out when `CN(C)C(=O)CN(C[C@H](O)[C@@H](O)[C@H](O)[C@H](O)CO)C(=O)CCCSc1ccc(Cl)c(COC2(c3cnccc3-c3ccccc3OC3CC3)CC2)c1` [Compound I-674, 4-{[4-chloro-3-({1-[4-(2-cyclopropoxyphenyl)pyridin-3-yl]cyclopropoxy}methyl)phenyl]sulfanyl}-N-[(dimethylcarbamoyl)methyl]-N-[(2S,3R,4R,5R)-2,3,4,5,6-pentahydroxyhexyl]butanamide] was run?
Its EC50 is 126 to 1000 nM.

Which EC50 does the source give for `Cc1ccc(SCCCCC(=O)N(C)C[C@H](O)[C@@H](O)[C@H](O)[C@H](O)CO)nc1CNC1(c2cnccc2-c2ccccc2OC2CC2)CC1` [Compound I-495, 5-([6-[([1-[4-(2-Cyclopropoxyphenyl)pyridin-3-yl]cyclopropyl]amino)methyl]-5-methylpyridin-2-yl]sulfanyl)-N-methyl-N-[(2S,3R,4R,5R)-2,3,4,5,6-pentahydroxyhexyl]pentanamide] here?
The EC50 was 126 to 1000 nM.

Which EC50 does the source give for `O=C(CCCCc1cc(Cl)c(COC2(c3cnccc3-c3ccccc3OC3CC3)CC2)cc1Cl)NCCN1CCN(CC(=O)NC[C@H](O)[C@@H](O)[C@H](O)[C@H](O)CO)CC1` [Compound I-99, 5-[2,5-dichloro-4-({1-[4-(2-cyclopropoxyphenyl)pyridin-3-yl]cyclopropoxy}methyl)phenyl]-N-{2-[4-({[(2S,3R,4R,5R)-2,3,4,5,6-pentahydroxyhexyl]carbamoyl}methyl)piperazin-1-yl]ethyl}pentanamide] here?
Its EC50 is less than 100 nM.

With `CC(CCCC(=O)N(CCCCCO)C[C@H](O)[C@@H](O)[C@H](O)[C@H](O)CO)c1ccc(Cl)c(CNC2(c3cnccc3-c3ccccc3OC3CC3)CC2)c1` (stereo partly drawn) [Compound I-261, 5-(4-chloro-3-(((1-(4-(2-cyclopropoxyphenyl)pyridin-3-yl)cyclopropyl)amino)methyl)phenyl)-N-(5-hydroxypentyl)-N-((2S,3R,4R,5R)-2,3,4,5,6-pentahydroxyhexyl) hexanamide] as the compound, how does the EC50 read?
The EC50 was less than 100 nM.

For `O=S(=O)(NC[C@H](O)[C@@H](O)[C@H](O)[C@H](O)CO)c1ccc(Cl)c(COC2(c3cnccc3-c3ccccc3OC3CC3)CC2)c1` [Compound I-397, (2S,3R,4R,5R)-S-[4-chloro-3-({1-[4-(2-cyclopropoxyphenyl)pyridin-3-yl]cyclopropoxy}methyl)phenyl]-2,3,4,5,6-pentahydroxyhexane-1-sulfonamido], which EC50 is on record?
The EC50 was 126 to 1000 nM.

`COCCCN(CCCC(C)c1ccc(Cl)c(CNC2(c3cnccc3-c3ccccc3OC3CC3)CC2)c1)C(=O)[C@@H](O)[C@@H](O)[C@H](O)[C@@H](O)CO` (stereo partly drawn) [Compound I-284, (2S,3S,4R,5S)-N-(4-{4-chloro-3-[({1-[4-(2-cyclopropoxyphenyl)pyridin-3-yl]cyclopropyl}amino)methyl]phenyl}pentyl)-2,3,4,5,6-pentahydroxy-N-(3-methoxypropyl)hexanamide] was tested. Which EC50 did it give?
Its EC50 is less than 100 nM.

For `CC(CCCNC(=O)NC[C@H](O)[C@@H](O)[C@H](O)[C@H](O)CO)c1ccc(Cl)c(CNC2(c3cnccc3-c3ccccc3OC3CC3)CC2)c1` (stereo partly drawn) [Compound I-265, 1-(4-{4-chloro-3-[({1-[4-(2-cyclopropoxyphenyl)pyridin-3-yl]cyclopropyl}amino)methyl]phenyl}pentyl)-3-[(2S,3R,4R,5R)-2,3,4,5,6-pentahydroxyhexyl]urea], which EC50 is on record?
Its EC50 is less than 100 nM.

Which EC50 does the source give for `O=C(CCN1CCN(S(=O)(=O)c2ccc(Cl)c(COC3(c4cnccc4-c4ccccc4OC4CC4)CC3)c2)CC1)NC[C@H](O)[C@@H](O)[C@H](O)[C@H](O)CO` [Compound I-443, 3-{4-[4-chloro-3-({1-[4-(2-cyclopropoxyphenyl)pyridin-3-yl]cyclopropoxy}methyl)benzenesulfonyl]piperazin-1-yl}-N-[(2S,3R,4R,5R)-2,3,4,5,6-pentahydroxyhexyl]propanamide] here?
Its EC50 is 126 to 1000 nM.

For `Cc1ccc(SCCCCN(C(=O)[C@@H](O)[C@@H](O)[C@H](O)[C@@H](O)CO)C2CCOCC2)cc1COC1(c2cnccc2-c2ccccc2OC2CC2)CC1` [Compound I-562, (2S,3S,4R,5S)-N-(4-{[3-({1-[4-(2-cyclopropoxyphenyl)pyridin-3-yl]cyclopropoxy}methyl)-4-methylphenyl]sulfanyl}butyl)-2,3,4,5,6-pentahydroxy-N-(oxan-4-yl)hexanamide], which EC50 is on record?
The EC50 was 126 to 1000 nM.

For `COCCN(CCCCc1cc(Cl)c(COC2(c3cnccc3-c3ccccc3OC3CC3)CC2)cc1Cl)C(=O)[C@@H](O)[C@@H](O)[C@H](O)[C@@H](O)CO` [Compound I-206, (2S,3S,4R,5S)-N-{4-[2,5-dichloro-4-({1-[4-(2-cyclopropoxyphenyl)pyridin-3-yl]cyclopropoxy}methyl)phenyl]butyl}-2,3,4,5,6-pentahydroxy-N-(2-methoxyethyl)hexanamide], which EC50 is on record?
The EC50 was less than 100 nM.

Which EC50 does the source give for `O=C(O)CN(C[C@H](O)[C@@H](O)[C@H](O)[C@H](O)CO)C(=O)CCCCc1cc(Cl)c(COC2(c3cnccc3-c3ccccc3OC3CC3)CC2)cc1Cl` [Compound I-87, 2-(5-(2,5-dichloro-4-((1-(4-(2-cyclopropoxyphenyl)pyridin-3-yl)cyclopropoxy)methyl)phenyl)-N-((2S,3R,4R,5R)-2,3,4,5,6-pentahydroxyhexyl)pentanamido)acetic acid] here?
The EC50 was less than 100 nM.

Which EC50 does the source give for `O=C(O)CCCC(=O)N(CCCCc1cc(Cl)c(COC2(c3cnccc3-c3ccccc3OC3CC3)CC2)cc1Cl)C[C@H](O)[C@@H](O)[C@H](O)[C@H](O)CO` [Compound I-182, 4-({4-[2,5-dichloro-4-({1-[4-(2-cyclopropoxyphenyl)pyridin-3-yl]cyclopropoxy}methyl)phenyl]butyl}[(2S,3R,4R,5R)-2,3,4,5,6-pentahydroxyhexyl]carbamoyl)butanoic acid] here?
The EC50 was less than 100 nM.

Reference: patent US12084472B2 (Ardelyx, Inc., priority 2015, dated 2024)
